Our source for the IC50 values is patent publication US20240150321A1, “PYRAZOLYLSULFONAMIDE COMPOUNDS AND THEIR USE IN THERAPY” (HOTSPOT THERAPEUTICS, INC., priority 2022, published 2024).

Read-outs that look alike come from different tables or passages of the source. Bounds are passed on as bounds.

The target in test [1] is Avi-tagged FL MALT-1 (Homo sapiens (Human), UniProt Q9UDY8). Kind of test: MALT-1 Fluorogenic Peptide Cleavage Assay (MALT1 inhibition assay). It is filed as biochemical. To be noted: Ac-LRSR-AMC peptide substrate, 30 min pre-incubation, 90 min reaction at room temperature. In short, it runs like this:
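Full-length Avi-tagged human MALT-1 (40 nM working stock) pre-incubated 30 min at RT with compound in 25 mM HEPES pH 6.89, 660 mM sodium citrate, 1 mM TCEP, […], 0.05% CHAPS, 2% DMSO. Ac-LRSR-AMC added at Km (50 μM working stock) or 10×Km (280 μM working stock); 90 min at RT, AMC fluorescence (ex 342/em 441 nm), IC50 from % inhibition curves.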

The test system of test [2] is NF-kB reporter in Jurkat cells. The test can be described thus: NF-kB reporter assay in Jurkat cells stimulated with aCD3/aCD28/PMA. The format is cell-based. To be noted: Homo sapiens, read-out: NF-kB Reporter Assay IC50. An outline of the steps:
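Jurkat cells (25,000/well, serum-free RPMI) were pre-incubated 1 h at 37° C with serially diluted compound, then stimulated 4 h with aCD3/aCD28/PMA at final […]. NF-kB reporter activity was read by One-Glo luminescence; IC50 values reported.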

Where [3] appears, read: Jurkat cells, 1 hr compound pre-incubation, aCD3/aCD28/PMA stimulation 4 hr, One-Glo readout.

Sequence of Avi-tagged FL MALT-1 (Q9UDY8 whole entry): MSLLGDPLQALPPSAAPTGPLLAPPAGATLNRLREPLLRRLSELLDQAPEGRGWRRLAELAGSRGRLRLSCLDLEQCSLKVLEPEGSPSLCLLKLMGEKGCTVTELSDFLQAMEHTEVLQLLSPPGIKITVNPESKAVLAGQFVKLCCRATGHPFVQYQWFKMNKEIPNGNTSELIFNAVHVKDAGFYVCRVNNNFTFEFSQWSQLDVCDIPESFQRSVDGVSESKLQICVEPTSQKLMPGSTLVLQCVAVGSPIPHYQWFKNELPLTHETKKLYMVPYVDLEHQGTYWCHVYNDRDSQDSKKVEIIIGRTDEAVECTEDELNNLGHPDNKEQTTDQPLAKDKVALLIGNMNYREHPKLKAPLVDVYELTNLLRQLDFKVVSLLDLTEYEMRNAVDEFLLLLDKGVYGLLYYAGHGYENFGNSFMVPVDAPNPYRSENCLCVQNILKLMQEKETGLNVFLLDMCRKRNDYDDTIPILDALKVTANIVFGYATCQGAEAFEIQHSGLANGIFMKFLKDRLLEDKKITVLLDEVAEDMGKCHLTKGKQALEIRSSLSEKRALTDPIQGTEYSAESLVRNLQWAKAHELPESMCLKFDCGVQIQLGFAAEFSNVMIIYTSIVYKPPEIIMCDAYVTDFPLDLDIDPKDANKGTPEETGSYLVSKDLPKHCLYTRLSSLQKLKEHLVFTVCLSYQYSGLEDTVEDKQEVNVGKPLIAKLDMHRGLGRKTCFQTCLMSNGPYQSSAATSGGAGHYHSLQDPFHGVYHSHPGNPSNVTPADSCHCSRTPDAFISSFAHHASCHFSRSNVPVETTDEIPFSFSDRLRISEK

As for `COCC(O)(COC)c1ccnc(-n2cc(S(=O)(=O)Nc3cccc4cnn(C)c34)cn2)c1` [Compound I-257, 1-(4-(2-Hydroxy-1,3-Dimethoxypropan-2-yl)Pyridin-2-yl)-N-(1-Methyl-1H-Indazol-7-yl)-1H-Pyrazole-4-Sulfonamide], the IC50 is more than 2500 nM in test [1] and 1000 to 2500 nM in test [2] (setting [3]).
Turning to `CCc1ccc2cnn(C)c2c1NS(=O)(=O)c1cnn(-c2ccnc(Cl)c2)c1` [Compound I-37, 1-(2-Chloropyridin-4-yl)-N-(6-Ethyl-1-Methyl-1H-Indazol-7-yl)-1H-Pyrazole-4-Sulfonamide], the IC50 is not above 400 nM in test [1] and less than 400 nM in test [2] (setting [3]).
Regarding `COc1ccc2cnn(C)c2c1NS(=O)(=O)c1cnn(-c2cc(C(C)O)ccn2)c1` (stereo not shown) [Compound I-134, 1-(4-(1-hydroxyethyl)pyridin-2-yl)-N-(6-methoxy-1-methyl-1H-indazol-7-yl)-1H-pyrazole-4-sulfonamide], the IC50 was 400 to 1000 nM in test [1] and less than 400 nM in test [2] (setting [3]).
Turning to `Cn1ncc2cccc(NS(=O)(=O)c3cnn(-c4cc(N5CC6CC5C6)ccn4)c3)c21` [Compound I-409, 1-(4-{2-azabicyclo[2.1.1]hexan-2-yl}pyridin-2-yl)-N-(1-methylindazol-7-yl)pyrazole-4-sulfonamide], the results for the IC50 in test [1] and in test [2] (setting [3]) were more than 2500 nM and less than 400 nM, respectively.
Turning to `COc1ccc2cnn(C)c2c1NS(=O)(=O)c1cnn(-c2ccnc(C3CC3)c2)c1` [Compound I-77, 1-(2-Cyclopropylpyridin-4-yl)-N-(6-Methoxy-1-Methyl-1H-Indazol-7-yl)-1H-Pyrazole-4-Sulfonamide], the figures for the IC50 in test [1] and in test [2] (setting [3]) were not above 400 nM and less than 400 nM, respectively.
As for `COc1ccc2cnn(C)c2c1NS(=O)(=O)c1cnn(-c2cc(N3CC(C)(OC)C3)ccn2)c1` [Compound I-453], the IC50 in test [1] is more than 2500 nM; in test [2] (setting [3]), 400 to 1000 nM.
On the same counts, the results for `COC(C)c1ccnc(-n2cc(S(=O)(=O)Nc3cccc4cnn(C)c34)cn2)c1` (stereo not shown) [Compound I-116, 1-(4-(1-methoxyethyl)pyridin-2-yl)-N-(1-methyl-1H-indazol-7-yl)-1H-pyrazole-4-sulfonamide] are more than 2500 nM and less than 400 nM.
As to `CN1C(=O)N(c2ccnc(-n3cc(S(=O)(=O)Nc4cccc5cnn(C)c45)cn3)c2)CC1(C)C` [Compound I-332], the IC50 in test [1] was more than 2500 nM; in test [2] (setting [3]) it was less than 400 nM.
On the same counts, the results for `CC[C@](C)(O)c1ccnc(-n2cc(S(=O)(=O)Nc3cccc4cnn(C)c34)cn2)c1` [Compound I-294] are more than 2500 nM and less than 400 nM.
Consider `Cn1ncc2cccc(NS(=O)(=O)c3cnn(-c4cc(C5CCOCC5)ccn4)c3)c21` [Compound I-123, N-(1-methyl-1H-indazol-7-yl)-1-(4-(tetrahydro-2H-pyran-4-yl)pyridin-2-yl)-1H-pyrazole-4-sulfonamide], for which the IC50 was more than 2500 nM in test [1] and less than 400 nM in test [2] (setting [3]).
On the same counts, the results for `Cn1ncc2cccc(NS(=O)(=O)c3cnn(-c4cc(N5CC6CC6C5)ccn4)c3)c21` (stereo not shown) [Compound I-375, 1-(4-(3-Azabicyclo[3.1.0]Hexan-3-yl)Pyridin-2-yl)-N-(1-Methyl-1H-Indazol-7-yl)-1H-Pyrazole-4-Sulfonamide] are more than 2500 nM and less than 400 nM.
As to `COc1ccc2cnn(C)c2c1NS(=O)(=O)c1cnn(-c2cc(C3(OC)CCC3)ccn2)c1` [Compound I-132, N-(6-Methoxy-1-Methyl-1H-Indazol-7-yl)-1-(4-(1-Methoxycyclobutyl)Pyridin-2-yl)-1H-Pyrazole-4-Sulfonamide], the IC50 in test [1] was not above 400 nM; in test [2] (Jurkat) it was less than 400 nM.
With `COc1ncc2cnn(C)c2c1NS(=O)(=O)c1cnn(-c2cc(N3CCC4(CC4)C3)ccn2)c1` [Compound I-424], the IC50 was more than 2500 nM in test [1] and less than 400 nM in test [2] (setting [3]).
Taken in the same sequence, the figures for `CCc1ccc2cnn(C)c2c1NS(=O)(=O)c1cnn(-c2cc(C)nc(C)c2)c1` [Compound I-32, 1-(2,6-Dimethylpyridin-4-yl)-N-(6-ethyl-1-Methyl-1H-Indazol-7-yl)-1H-Pyrazole-4-Sulfonamide] were not above 400 nM and 400 to 1000 nM.
